Results published in patent publication US20220211718A1, “BCL-2 INHIBITORS FOR USE IN THE TREATMENT OF A BCL-2 MEDIATED CANCER CARRYING THE GLY101VAL MUTATION” (LES LABORATOIRES SERVIER, priority 2019, published 2022).

Key:
RS4;11 Bcl-2 WT cells = test: In vitro cytotoxicity, CellTiter-Glo cell viability 72 h; assay type: cell-based; details: Homo sapiens, read-out: RS4;11 Bcl-2 WT C50
Description: (§1) Cell lines were grown at 37° C. in a humidified atmosphere with 5% CO2 in media recommended by the suppliers. RS4;11 (ATCC® CRL1873™) were purchased from American Type Culture Collection (ATCC) and KMS-12-PE (ACC 606) from the Leibniz-Institute DSMZ (Braunschweig, Germany). Lentiviral particles containing Bcl-2 wild-type (also named ‘Bcl-2 VT’) and Bcl-2 mutated on G101V (also named ‘Bcl-2 G101V’) were cloned into pcLV-CMV-DEST-IRES-TagRFP. Lentiviral particles (1×10^6) were mixed with Polybrene at 8 μg/ml and transduced by spinoculation for 1 h at 32° C. and incubated overnight. After 8 days for KMS-12-PE and 21 days for RS4;11, TagRFP positive-cells were sorted by FACS. BCL2 expression was monitored by immunoblotting using anti-Flag and anti-BCL2 antibodies. Cells were seeded into 96-well plates and treated with 1:3.16 serial dilution of compounds (9 different concentrations). […] Results were normalized to the viability of cells without compounds (control wells). The C50 values were calculated using nonlinear regression algorithms in XCell software.

RS4;11 Bcl-2 G101V cells = test: as above; assay type: cell-based; details: Homo sapiens, read-out: RS4;11 Bcl-2 G101V C50
Description: as §1

KMS-12-PE Bcl-2 WT cells = test: as above; assay type: cell-based; details: Homo sapiens, read-out: KMS-12-PE Bcl-2 WT C50
Description: as §1

[1] = tested on: KMS-12-PE Bcl-2 G101V cells; test: as above; assay type: cell-based; details: Homo sapiens, read-out: KMS-12-PE Bcl-2 G101V C50
Description: as §1

[2] = tested on: KMS-12-PE Bcl-2 D103Y cells; test: In vitro cytotoxicity, CellTiter-Glo cell viability 72 h, Example 5; assay type: cell-based; details: Homo sapiens, read-out: KMS-12-PE Bcl-2 D103Y C50
Description: Cell lines were grown at 37° C. in a humidified atmosphere with 5% CO2 in media recommended by the suppliers. KMS-12-PE (ACC 606) from the Leibniz-Institute DSMZ (Braunschweig, Germany). Lentiviral particles containing Bcl-2 mutated on D103Y were cloned into pcLV-CMV-DEST-IRES-TagRFP. Lentiviral particles (1×10^6) were mixed with Polybrene at 8 μg/ml and transduced by spinoculation for 1 h at 32° C. and incubated overnight. TagRFP positive-KMS-12-PE cells were sorted by FACS after 8 days. Bcl-2 expression was monitored by immunoblotting using anti-Flag and anti-Bcl-2 antibodies. Cells were seeded into 96-well plates and treated at 9 points with 1:3.16 serial dilution of compounds. […] Results were normalized to the viability of cells without compounds (control wells). The C50 values were calculated using nonlinear Regression algorithms in XCell software.

Bcl-2 Asp103Tyr mutant = Bcl-2 Asp103Tyr mutant (Homo sapiens, UniProt P10415, D103Y); test: Fluorescence quenching assay (PUMA quench reagent displacement), Example 4; assay type: binding; details: 50 nM peptide, about 2 hours at 18° C., ABT-199 inactive @1 μM
Sequence of Bcl-2 Asp103Tyr mutant (P10415 with tags, fused parts or gaps D103Y): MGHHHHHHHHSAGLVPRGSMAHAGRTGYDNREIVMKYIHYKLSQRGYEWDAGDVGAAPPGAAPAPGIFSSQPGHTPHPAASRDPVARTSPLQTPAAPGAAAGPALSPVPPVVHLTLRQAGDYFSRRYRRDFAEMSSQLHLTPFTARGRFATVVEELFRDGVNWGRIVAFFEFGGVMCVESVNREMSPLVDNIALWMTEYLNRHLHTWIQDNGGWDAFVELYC
From the text: […] […] […] […] […] […] […] […] […] […] […] […] […] […] […] […] […] […] […] […] […] […] […] […] […] […] […]

| Structure (SMILES) | IC50 (RS4;11 Bcl-2 WT cells) [nM] | IC50 (RS4;11 Bcl-2 G101V cells) [nM] | IC50 (KMS-12-PE Bcl-2 WT cells) [nM] | IC50 [1] [nM] | IC50 [2] [nM] | Bel-2 Asp103Tyr mutant K1 mean (Bcl-2 Asp103Tyr mutant) |
| --- | --- | --- | --- | --- | --- | --- |
| O=C(c1cc(-c2cc3c(cc2C(=O)N2Cc4ccccc4C[C@H]2CN2CCOCC2)OCO3)n2c1CCCC2)N(c1ccccc1)c1ccc(O)cc1 [Compound A, N-(4-hydroxyphenyl)-3-{6-[((3S)-3-(4-morpholinylmethyl)-3,4-dihydro-2(1H)-isoquinolinyl)carbonyl]-1,3-benzodioxol-5-yl}-N-phenyl-5,6,7,8-tetrahydro-1-indolizine carboxamide] | 82.3 | 495 | 57.3 | 961 |  |  |
| CC1(C)CCC(CN2CCN(c3ccc(C(=O)NS(=O)(=O)c4ccc(NCC5CCOCC5)c([N+](=O)[O-])c4)c(Oc4cnc5[nH]ccc5c4)c3)CC2)=C(c2ccc(Cl)cc2)C1 [ABT-199, Venetoclax, reference compound] | 10.7 | 130 | 22.5 | 931 | 1830 | inactive |
| Cc1c(N(C(=O)c2cc(-c3cc(Cl)ccc3C(=O)N3Cc4ccccc4C[C@H]3CN3CCOCC3)n(C)c2C)c2ccc(O)cc2)cc(C#N)n1C [Compound B, 5-(5-chloro-2-{[(3S)-3-(morpholin-4-ylmethyl)-3,4-dihydroisoquinolin-2(1H)-yl]carbonyl}phenyl)-N-(5-cyano-1,2-dimethyl-1H-pyrrol-3-yl)-N-(4-hydroxyphenyl)-1,2-dimethyl-1H-pyrrole-3-carboxamide] | 9.03 | 60.4 | 21 | 179 | 83.7 |  |
